Measurements from PMC5726399 (Neuropharmacology, 2017).
“Also recorded” adds a separate entry of the source. Structures can show the parent of a compound that is named as a salt. Where two headings read alike, the source gives them in different places. Where no end group is shown, it is not given here.

Tests used:
NMDA receptors [1] = details: ref Chen et al., 2010, cited from earlier work; for effect on NMDA-induced substance P release: Marvizon et al., 1997
AC/PKA pathway = assay: NK1R internalization induced by forskolin or 8-Br-cAMP in slices; design: species or system rat; details: 60 min; for NK1R internalization elicited: 10 μM forskolin or 0.5 mM 8-Br-cAMP, no NMDA
[2] = test system: NMDA receptor-induced substance P release; assay: NMDA-induced NK1R internalization in slices preincubated with BVT948; design: species or system rat; details: 10 μM BVT948, 60 min preincubation
[3] = test system: CTX-insensitive component of NMDA-induced substance P release; assay: CTX-insensitive component of NMDA-induced substance P release in slices; design: species or system rat; details: 1 μM DAMGO, 100 μM SQ22536 or 10 μM KT5720, 60 min; for additional inhibition in presence of CTX GVIA: 1 μM CTX GVIA; for additional inhibition in presence of CTX MVIIC: 1 μM CTX MVIIC
protein kinase A (PKA) = assay: PKA inhibition: NMDA-induced NK1R internalization in slices; design: species or system rat; details: 10 μM, 60 min
NMDA receptors [4] = assay: NMDA-induced NK1R internalization in spinal cord slices; design: species or system rat; details: 10 μM NMDA + 10 μM D-Ser, 2 min, 35 °C
[5] = test system: substance P release / NK1R internalization in lamina I neurons; assay: In vivo NK1R internalization induced by intrathecal NMDA; design: species or system rat; details: for lamina 1 neurons with NK1R internalization in example image: confocal image, one rat per group, L4
[6] = test system: NMDA receptors in DRG neurons; format: cell-based, rat
protein kinase C (PKC) = assay: PKC inhibitors and activators: NMDA-induced NK1R internalization in slices; design: species or system rat; details: for effect on NMDA-induced substance P release: 60 min
adenylyl cyclase (AC) = assay: AC inhibition: NMDA-induced NK1R internalization in slices; design: species or system rat; details: SQ22536 10 μM, 60 min
TRPV1 channels [7] = details: cited from earlier work
TRPV1 channels [8] = test system: TRPV1 channels; design: species or system rat
[9] = target: NMDA receptors with the NR2B subunit (Rattus norvegicus, UniProt P35439+Q00960); details: % NK1R internalization
rat brain membranes = details: ref Grimwood et al., 2000; cited from earlier work
NR1a/NR2B NMDA receptors = details: Xenopus oocytes; ref Williams, 1993; cited from earlier work
GIRK channels = test system: GIRK channels; design: species or system rat
[10] = test system: NMDA receptor-induced substance P release; assay: NMDA-induced NK1R internalization in slices preincubated with BDNF; design: species or system rat
[11] = chelerythrine 10 μM, Ro-32-0432, TPPB 1 μM, with 10 nM DAMGO
[12] = chelerythrine 10 μM, Ro-32-0432, TPPB, PMA 1 μM

NMDA receptors with the NR2B subunit, sequence (Q00960 27-1482, other chains not shown): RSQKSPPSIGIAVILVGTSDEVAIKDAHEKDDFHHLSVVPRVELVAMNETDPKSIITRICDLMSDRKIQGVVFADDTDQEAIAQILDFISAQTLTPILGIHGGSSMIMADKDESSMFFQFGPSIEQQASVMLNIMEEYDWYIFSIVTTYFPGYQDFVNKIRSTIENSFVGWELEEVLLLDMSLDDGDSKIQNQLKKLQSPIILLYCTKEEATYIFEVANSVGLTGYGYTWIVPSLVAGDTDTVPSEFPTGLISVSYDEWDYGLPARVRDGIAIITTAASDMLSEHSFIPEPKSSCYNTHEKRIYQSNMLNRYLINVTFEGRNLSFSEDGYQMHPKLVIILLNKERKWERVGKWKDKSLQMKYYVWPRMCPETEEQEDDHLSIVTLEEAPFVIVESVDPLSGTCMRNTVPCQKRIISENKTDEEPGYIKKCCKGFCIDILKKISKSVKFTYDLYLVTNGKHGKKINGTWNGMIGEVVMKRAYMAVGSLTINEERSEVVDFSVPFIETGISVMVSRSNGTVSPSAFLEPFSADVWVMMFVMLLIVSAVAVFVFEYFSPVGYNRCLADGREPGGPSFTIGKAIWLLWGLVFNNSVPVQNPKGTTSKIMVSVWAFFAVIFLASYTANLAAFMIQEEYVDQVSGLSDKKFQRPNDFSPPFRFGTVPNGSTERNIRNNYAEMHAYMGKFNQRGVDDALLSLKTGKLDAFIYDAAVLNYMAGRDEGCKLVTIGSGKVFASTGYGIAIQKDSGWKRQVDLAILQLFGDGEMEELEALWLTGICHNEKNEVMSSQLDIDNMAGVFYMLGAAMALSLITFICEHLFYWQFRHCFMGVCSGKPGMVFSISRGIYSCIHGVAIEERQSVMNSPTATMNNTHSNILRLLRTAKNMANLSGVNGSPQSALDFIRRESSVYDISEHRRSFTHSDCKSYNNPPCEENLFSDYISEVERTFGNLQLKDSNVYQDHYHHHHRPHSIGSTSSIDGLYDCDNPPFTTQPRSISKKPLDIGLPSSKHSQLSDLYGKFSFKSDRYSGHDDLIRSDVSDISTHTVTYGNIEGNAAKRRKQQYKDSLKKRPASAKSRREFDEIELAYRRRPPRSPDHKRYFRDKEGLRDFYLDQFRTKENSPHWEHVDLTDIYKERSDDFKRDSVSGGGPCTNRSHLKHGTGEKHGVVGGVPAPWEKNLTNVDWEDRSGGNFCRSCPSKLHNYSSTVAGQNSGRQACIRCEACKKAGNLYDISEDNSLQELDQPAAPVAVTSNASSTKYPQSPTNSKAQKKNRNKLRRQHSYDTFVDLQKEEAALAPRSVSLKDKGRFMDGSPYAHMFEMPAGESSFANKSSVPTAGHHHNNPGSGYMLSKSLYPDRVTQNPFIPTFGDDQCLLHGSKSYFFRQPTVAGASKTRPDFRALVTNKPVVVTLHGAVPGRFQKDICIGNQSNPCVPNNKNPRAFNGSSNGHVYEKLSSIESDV

## NC(CCCP(=O)(O)O)C(=O)O (centres unmarked) [2-amino-phosphopentanoic acid]
NMDA receptors [1]
  effect on NMDA-induced substance P release: inhibited

## Nc1ncnc2c1nc(Br)n2[C@@H]1O[C@@H]2COP(=O)(O)O[C@H]2[C@H]1O [8-Br-cAMP, 8-Bromoadenosine-3′,5′-cyclic monophosphate]
AC/PKA pathway
  NK1R internalization elicited: greater than NMDA+D-Ser, with 8-Br-cAMP producing the larger effect

## CC1(C)C(=O)N=C2C1=C(O)C(=O)c1ccccc12 [BVT948, 4-hydroxy-3,3-dimethyl-2H-benz[g]indole-2,5(3H)-dione]
[2]
  effect on NMDA-induced NK1R internalization: substantially increased NMDA-induced NK1R internalization

## CCCCCCOC(=O)[C@]1(O)C[C@@H]2O[C@@]1(C)n1c3ccccc3c3c4c(c5c6ccccc6n2c5c31)C(=O)NC4 [KT5720, (9R,10S,12S)-2,3,9,10,11,12-Hexahydro-10-hydroxy-9-methyl-1-oxo-9,12-epoxy-1H-diindolo[1,2,3-fg:3′,2′,1′-kl]pyrrolo[3,4-i][1,6]benzodiazocine-10-carboxylic acid, hexyl ester]
[3]
  additional inhibition in presence of CTX GVIA: did not produce any further inhibition
  additional inhibition in presence of CTX MVIIC: did not produce any further inhibition
Protein kinase A (PKA)
  effect on NMDA-induced NK1R internalization: did not completely abolish NMDA-induced NK1R internalization
Protein kinase A (PKA); listed as KT 5720
  effect on NMDA-induced NK1R internalization: decreased

## C[C@]12N[C@H](Cc3ccccc31)c1ccccc12 [MK-801, (5S,10R)-(+)-5-Methyl-10,11-dihydro-5H-dibenzo[a, d]cyclohepten-5,10-imine maleate]
NMDA receptors [1]
  effect on NMDA-induced substance P release: inhibited
AC/PKA pathway; 10 μM MK-801 or 1 μM DAMGO with 10 μM forskolin
  effect on forskolin-evoked substance P release: substantially decreased their effect on substance P release, although not to control levels
AC/PKA pathway; 10 μM MK-801 or 1 μM DAMGO with 0.5 mM 8-Br-cAMP
  effect on 8-Br-cAMP-evoked substance P release: substantially decreased their effect on substance P release, although not to control levels

## CN[C@H](CC(=O)O)C(=O)O [NMDA, N-methyl-D-aspartate]
NMDA receptors [4]
  NK1R internalization induced (lamina I NK1R neurons): about 50%
[5]
  lamina 1 neurons with NK1R internalization in example image: there was no NK1R internalization
[6]
  [Ca2+]i increase: increases in some of the neurons

## CN(C)C[C@H]1CCn2c(c(C3=C(c4cn(C)c5ccccc45)C(=O)NC3=O)c3ccccc32)C1.Cl [Ro-32-0432, 3-[(8S)-8-[(Dimethylamino)methyl]-6,7,8,9-tetrahydropyrido[1,2-a]indol-10-yl]-4-(1-methyl-1H-indol-3-yl)-1H-pyrrole-2,5-dione hydrochloride]
Protein kinase C (PKC); [11]
  effect on inhibition by 10 nM DAMGO: did not increase its inhibition by DAMGO
Protein kinase C (PKC); [12]
  effect on NMDA-induced substance P release: did not affect NMDA-induced substance P release

## Nc1ncnc2c1ncn2C1CCCO1 (centres unmarked) [SQ22536, 9-(Tetrahydro-2-furanyl)-9H-purin-6-amine]
[3]
  additional inhibition in presence of CTX GVIA: did not produce any further inhibition
  additional inhibition in presence of CTX MVIIC: did not produce any further inhibition
Adenylyl cyclase (AC)
  effect on NMDA-induced NK1R internalization: but not at 10 μM

## CC(C)[C@H]1C(=O)N[C@H](CO)Cc2cc(NC(=O)/C=C/C=C/c3ccc(C(F)(F)F)cc3)ccc2N1C [TPPB, (2E4E)-N-[(2S,5S)-1,2,3,4,5,6-Hexahydro-5-(hydroxymethyl)-1-methyl-2-(1-methylethyl)-3-oxo-1,4-benzodiazocin-8-yl]-5-[4-(trifluoromethyl)phenyl]-2,4-pentadienamide]
Protein kinase C (PKC)
  effect on inhibition by 10 nM DAMGO: did not affect inhibition by 10 nM DAMGO
  effect on NMDA-induced substance P release: strongly increased NMDA-induced substance P release

## NCC(CC(=O)O)c1ccc(Cl)cc1 (centres unmarked) [baclofen]
TRPV1 channels [7]; capsaicin on dorsal root or low concentrations, ref Lao et al., 2003
  effect on substance P release by dorsal root or low-concentration capsaicin: can be inhibited
TRPV1 channels [7]; higher capsaicin concentrations, ref Lao et al., 2003
  effect on substance P release by higher concentrations of capsaicin: did not inhibit substance P release

## COc1cc(CNC(=O)CCCC/C=C/C(C)C)ccc1O [capsaicin]
NMDA receptors [1]; C-fibers depleted by incubating slices with capsaicin
  effect of substance P depletion on NMDA-induced substance P release: disappears
TRPV1 channels [8]
  NK1R internalization elicited by 0.3 μM capsaicin: 75%
  NK1R internalization elicited by 1 μM capsaicin: maximal NK1R internalization
TRPV1 channels [7]; read-out: EC50 to induce NK1R internalization, ref Marvizon et al., 2003a
  EC50: 370 nM

## Oc1cc2c(cc1O)CN(C(=S)NCCc1ccc(Cl)cc1)CCC2 [capsazepine]
TRPV1 channels [7]; ref Lao et al., 2003
  effect on capsaicin-induced substance P release (TRPV1 antagonist): blocked

## COc1ccc2c(c[n+](C)c3c4cc5c(cc4ccc23)OCO5)c1OC [chelerythrine]
Protein kinase C (PKC); [11]
  effect on inhibition by 10 nM DAMGO: did not increase its inhibition by DAMGO; also recorded: showed a trend to decrease the inhibition by 10 nM DAMGO
Protein kinase C (PKC); [12]
  effect on NMDA-induced substance P release: did not affect NMDA-induced substance P release

## C=C[C@@]1(C)CC(=O)[C@]2(O)[C@@]3(C)[C@@H](O)CCC(C)(C)[C@@H]3[C@H](O)[C@H](OC(C)=O)[C@@]2(C)O1 [forskolin]
AC/PKA pathway
  NK1R internalization elicited: greater than NMDA+D-Ser

## CC(C(O)c1ccc(O)cc1)N1CCC(Cc2ccccc2)CC1 (centres unmarked) [ifenprodil]
[9]
  top: 62 ± 3%
[9]; basal without NMDA 12±1%
  bottom: 26 ± 2%
Rat brain membranes
  Kd: 25 nM
NR1a/NR2B NMDA receptors
  potency to inhibit currents: 340 nM

## CCN(CC)CC(=O)Nc1c(C)cccc1C [lidocaine]
NMDA receptors [1]
  effect on NMDA-induced substance P release (action potential block): not affected

## PKI 14–22: protein kinase inhibitor 14–22, PKA inhibitor (GRTGRRNAI; also: myristoylated; UniProt P61925 15-23, looked up, fragment)
Protein kinase A (PKA)
  effect on NMDA-induced NK1R internalization: decreased

## tertiapin Q
GIRK channels
  effect on NMDA-induced NK1R internalization: small but significant inhibition
  effect on inhibition by DAMGO: did not affect the inhibition by DAMGO

B1: BDNF: brain-derived neurotrophic factor (protein, UniProt P23560 19-247, looked up)
Neurotrophic factor BDNF …: APMKEANIRGQGGLAYPGVRTHGTLESVNGPKAGSRGLTSLADTFEHVIEELLDEDQKVRPNEENNKDADLYTSRVMLSSQVPLEPPLLFLLEEYKNYLDAANMSMRVRRHSDPARRGELSVCDSISEWVTAADKKTAVDMSGGTVTVLEKVPVSKGQLKQYFYETKCNPMGYTKEGCRGIDKRHWNSQCRTTQSYVRALTMDSKKRIGWRFIRIDTSCVCTLTIKRGR
[10]
  effect on NMDA-induced NK1R internalization: increased NMDA-induced NK1R internalization
[5]
  lamina 1 neurons with NK1R internalization in example image: 5 out of 7 cells
[5]; intrathecal BDNF 0.3 μg, 4 h before NMDA + D-Ser, p<0.01 vs NMDA
  effect of BDNF on NMDA-induced NK1R internalization: significant increase in NMDA-induced NK1R internalization
